Where a SMILES comes first, the peptide text is derived from it. [ ]: non-standard residue; d: D form. The star is where a group is joined. BI2536acyl = CC[C@@H]1C(=O)N(C)c2cnc(Nc3ccc(C(=O)*)cc3OC)nc2N1C1CCCC1; His(π-(CH2)8Ph) = N[C@@H](Cc1cncn1CCCCCCCCc1ccccc1)C(=O)O; pT = C[C@@H](OP(=O)(O)O)[C@H](N)C(=O)O; AEEA = NCCOCCOCC(=O)O
Experiments:
[1] = molecular target: T1, Serine/threonine-protein kinase PLK1 (Homo sapiens, UniProt P53350); experiment: Displacement of biotin-Ahx-PMQSpTPLN from myc-tagged Plk1 in cytosolic lysates (unknown origin) preincubated for 1 hr followed by biotinylated probe addition and measured after 1 hr by ELISA; type: subcellular, Cytosol
T1 sequence (P53350 whole entry): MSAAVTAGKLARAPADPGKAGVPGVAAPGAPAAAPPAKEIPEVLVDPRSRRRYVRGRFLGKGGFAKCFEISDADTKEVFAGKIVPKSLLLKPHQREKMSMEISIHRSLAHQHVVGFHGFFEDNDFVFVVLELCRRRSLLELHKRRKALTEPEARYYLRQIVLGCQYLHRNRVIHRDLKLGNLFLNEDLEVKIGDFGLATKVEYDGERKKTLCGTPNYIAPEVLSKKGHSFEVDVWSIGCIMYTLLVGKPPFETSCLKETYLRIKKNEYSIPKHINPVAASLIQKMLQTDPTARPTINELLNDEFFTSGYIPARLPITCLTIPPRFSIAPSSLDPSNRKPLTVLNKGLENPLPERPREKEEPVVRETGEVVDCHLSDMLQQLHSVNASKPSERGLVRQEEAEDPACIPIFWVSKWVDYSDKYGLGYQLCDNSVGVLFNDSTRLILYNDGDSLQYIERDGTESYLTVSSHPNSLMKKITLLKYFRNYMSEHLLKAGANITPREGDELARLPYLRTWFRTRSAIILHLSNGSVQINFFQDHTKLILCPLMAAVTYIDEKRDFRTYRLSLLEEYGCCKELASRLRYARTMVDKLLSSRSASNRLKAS

[2] = molecular target: T1, Serine/threonine-protein kinase PLK1; experiment: Displacement of FITC-miniPEG-FDPPLHSpTA from full length Plk1 (unknown origin) preincubated for 30 mins followed by fluorescent probe addition and measured after 30 mins by fluorescence polarization assay

IC50 [1]	IC50 [2]	SMILES
Not_active		CC[C@@H]1C(=O)N(C)c2cnc(Nc3ccc(C(=O)NCCCC[C@H](NC(=O)COCCOCCNC(=O)[C@@H](NC(=O)[C@H](CO)NC(=O)[C@H](Cc4cncn4CCCCCCCCc4ccccc4)NC(C)=O)[C@@H](C)OP(=O)(O)O)C(N)=O)cc3OC)nc2N1C1CCCC1 (Ac-[His(π-(CH2)8Ph)]S[pT][AEEA]K(BI2536acyl)-NH2)
Not_active		CC[C@@H]1C(=O)N(C)c2cnc(Nc3ccc(C(=O)NCCCC[C@H](NC(C)=O)C(=O)NCCOCCOCC(=O)N[C@@H](Cc4cncn4CCCCCCCCc4ccccc4)C(=O)N[C@@H](CO)C(=O)N[C@H](C(N)=O)[C@@H](C)OP(=O)(O)O)cc3OC)nc2N1C1CCCC1 (Ac-K(BI2536acyl)[AEEA][His(π-(CH2)8Ph)]S[pT]-NH2)
Not_active	Not_active	CC[C@@H]1C(=O)N(C)c2cnc(Nc3ccc(C(=O)NCCCC[C@H](NC(=O)COCCOCCNC(=O)COCCOCCNC(=O)COCCOCCNC(=O)COCCOCCNC(=O)[C@@H](NC(=O)[C@H](CO)NC(=O)[C@H](Cc4c[nH]cn4)NC(=O)[C@H](CC(C)C)NC(=O)[C@@H]4CCCN4C(C)=O)[C@@H](C)O)C(N)=O)cc3OC)nc2N1C1CCCC1 (Ac-PLHST[AEEA][AEEA][AEEA][AEEA]K(BI2536acyl)-NH2)
Not_active	Not_active	CC[C@@H]1C(=O)N(C)c2cnc(Nc3ccc(C(=O)NCCCC[C@H](NC(=O)COCCOCCNC(=O)COCCOCCNC(=O)COCCOCCNC(=O)COCCOCCNC(=O)[C@@H](NC(=O)[C@H](CO)NC(=O)[C@H](Cc4cncn4CCCCCCCCc4ccccc4)NC(=O)[C@H](CC(C)C)NC(=O)[C@@H]4CCCN4C(C)=O)[C@@H](C)O)C(N)=O)cc3OC)nc2N1C1CCCC1 (Ac-PL[His(π-(CH2)8Ph)]ST[AEEA][AEEA][AEEA][AEEA]K(BI2536acyl)-NH2)
Not_active	Not_active	CC[C@@H]1C(=O)N(C)c2cnc(Nc3ccc(C(=O)NCCCC[C@H](NC(C)=O)C(=O)NCCOCCOCC(=O)NCCOCCOCC(=O)NCCOCCOCC(=O)NCCOCCOCC(=O)N4CCC[C@H]4C(=O)N[C@@H](CC(C)C)C(=O)N[C@@H](Cc4cncn4CCCCCCCCc4ccccc4)C(=O)N[C@@H](CO)C(=O)N[C@H](C(N)=O)[C@@H](C)O)cc3OC)nc2N1C1CCCC1 (Ac-K(BI2536acyl)[AEEA][AEEA][AEEA][AEEA]PL[His(π-(CH2)8Ph)]ST-NH2)
Not_active	Not_active	CC[C@@H]1C(=O)N(C)c2cnc(Nc3ccc(C(=O)NCCCC[C@H](NC(C)=O)C(=O)NCCOCCOCC(=O)NCCOCCOCC(=O)NCCOCCOCC(=O)NCCOCCOCC(=O)N4CCC[C@H]4C(=O)N[C@@H](CC(C)C)C(=O)N[C@@H](Cc4c[nH]cn4)C(=O)N[C@@H](CO)C(=O)N[C@H](C(N)=O)[C@@H](C)O)cc3OC)nc2N1C1CCCC1 (Ac-K(BI2536acyl)[AEEA][AEEA][AEEA][AEEA]PLHST-NH2)

Source: ChEMBL document CHEMBL6109049, “Fine-tuning probes for fluorescence polarization binding assays of bivalent ligands against polo-like kinase 1 using full-length protein” (Bioorg Med Chem, 2025)
